{
  "source": "ChEMBL document CHEMBL4339189",
  "about": "“Dissymmetric pyridyl-substituted 3,5-bis(arylidene)-4-piperidones as anti-hepatoma agents by inhibiting NF-κB pathway activation” (Eur J Med Chem, 2019)",
  "key": {"[1]": {"test_system": "Mus musculus", "assay": "Antiinflammatory activity in human HepG2 cells xenografted Balb/c nude mouse assessed as reduction in TNFalpha protein expression at 1 mg/kg, ip administered every 2 days for 20 days and measured every 2 days by immunohistochemistry", "format": "functional, organism-based"}, "[2]": {"test_system": "HepG2", "assay": "Cytotoxicity against human HepG2 cells assessed as reduction in cell viability incubated for 24 hrs by MTT assay", "format": "functional, cell-based"}, "[3]": {"test_system": "QGY-7703", "assay": "Cytotoxicity against human QGY7703 cells assessed as reduction in cell viability incubated for 24 hrs by MTT assay", "format": "functional, cell-based"}, "[4]": {"test_system": "SMMC-7721", "assay": "Cytotoxicity against human SMMC7721 cells assessed as reduction in cell viability incubated for 24 hrs by MTT assay", "format": "functional, cell-based"}, "[5]": {"assay": "Cytotoxicity against human HHL5 cells assessed as reduction in cell viability incubated for 24 hrs by MTT assay", "format": "cell-based", "conditions": "HHL-5, 24 h"}, "[6]": {"test_system": "L02", "assay": "Cytotoxicity against human LO2 cells assessed as reduction in cell viability incubated for 24 hrs by MTT assay", "format": "cell-based", "conditions": "L02, 24 h"}, "[7]": {"test_system": "SMMC-7721", "assay": "Induction of apoptosis in human SMMC7721 cells assessed as increase in apoptotic cell population at 4.0 uM incubated for 24 hrs by Annexin V-FITC/propidium iodide staining based flow cytometry", "format": "functional"}, "[8]": {"test_system": "HepG2", "assay": "Induction of apoptosis in human HepG2 cells assessed as increase in apoptotic cell population at 4.0 uM incubated for 24 hrs by Annexin V-FITC/propidium iodide staining based flow cytometry", "format": "functional"}, "[9]": {"test_system": "QGY-7703", "assay": "Induction of apoptosis in human QGY7703 cells assessed as increase in apoptotic cell population at 4.0 uM incubated for 24 hrs by Annexin V-FITC/propidium iodide staining based flow cytometry", "format": "functional"}, "[10]": {"test_system": "QGY-7703", "assay": "Induction of apoptosis in human QGY7703 cells assessed as increase in apoptotic cell population at 2.0 uM incubated for 24 hrs by Annexin V-FITC/propidium iodide staining based flow cytometry relative to control", "format": "functional"}, "[11]": {"test_system": "HepG2", "assay": "Induction of apoptosis in human HepG2 cells assessed as increase in apoptotic cell population at 2.0 uM incubated for 24 hrs by Annexin V-FITC/propidium iodide staining based flow cytometry relative to control", "format": "functional"}, "[12]": {"test_system": "SMMC-7721", "assay": "Induction of apoptosis in human SMMC7721 cells assessed as increase in apoptotic cell population at 2.0 uM incubated for 24 hrs by Annexin V-FITC/propidium iodide staining based flow cytometry relative to control", "format": "functional"}, "[13]": {"test_system": "QGY-7703", "assay": "Induction of apoptosis in human QGY7703 cells assessed as increase in apoptotic cell population at 4.0 uM incubated for 24 hrs by Annexin V-FITC/propidium iodide staining based flow cytometry relative to control", "format": "functional"}, "[14]": {"test_system": "HepG2", "assay": "Induction of apoptosis in human HepG2 cells assessed as increase in apoptotic cell population at 4.0 uM incubated for 24 hrs by Annexin V-FITC/propidium iodide staining based flow cytometry relative to control", "format": "functional"}, "[15]": {"test_system": "SMMC-7721", "assay": "Induction of apoptosis in human SMMC7721 cells assessed as increase in apoptotic cell population at 4.0 uM incubated for 24 hrs by Annexin V-FITC/propidium iodide staining based flow cytometry relative to control", "format": "functional"}, "[16]": {"test_system": "HepG2", "assay": "Induction of apoptosis in human HepG2 cells assessed as increase in Bax expression up to 4 uM after 24 hrs by Western blot analysis", "format": "functional, cell-based"}, "[17]": {"test_system": "HepG2", "assay": "Induction of apoptosis in human HepG2 cells assessed as reduction in Bcl-2 expression up to 4 uM after 24 hrs by Western blot analysis", "format": "functional, cell-based"}, "[18]": {"biological_target": "T1, NF-kappa-B inhibitor alpha (Mus musculus) (UniProt Q9Z1E3)", "T1 sequence (whole entry)": "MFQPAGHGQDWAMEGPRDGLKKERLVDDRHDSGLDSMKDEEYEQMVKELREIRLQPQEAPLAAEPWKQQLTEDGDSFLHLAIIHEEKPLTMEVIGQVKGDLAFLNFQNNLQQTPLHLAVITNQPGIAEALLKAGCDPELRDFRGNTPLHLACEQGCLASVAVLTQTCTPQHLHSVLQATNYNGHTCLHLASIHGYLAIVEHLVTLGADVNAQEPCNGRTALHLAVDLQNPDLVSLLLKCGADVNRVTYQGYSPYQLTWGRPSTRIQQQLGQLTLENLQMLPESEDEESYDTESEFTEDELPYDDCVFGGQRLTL", "assay": "Inhibition of NFkappaB signalling activation in mouse RAW264.7 cells assessed as reduction in LPS-induced IkBalpha phosphorylation at 1 to 4 uM incubated for 2 hrs after pre-incubation with LPS for 15 mins by Western blot analysis", "format": "cell-based"}, "[19]": {"biological_target": "Transcription factor p65 (Mus musculus) (UniProt Q04207)", "sequence (Q04207 whole entry)": "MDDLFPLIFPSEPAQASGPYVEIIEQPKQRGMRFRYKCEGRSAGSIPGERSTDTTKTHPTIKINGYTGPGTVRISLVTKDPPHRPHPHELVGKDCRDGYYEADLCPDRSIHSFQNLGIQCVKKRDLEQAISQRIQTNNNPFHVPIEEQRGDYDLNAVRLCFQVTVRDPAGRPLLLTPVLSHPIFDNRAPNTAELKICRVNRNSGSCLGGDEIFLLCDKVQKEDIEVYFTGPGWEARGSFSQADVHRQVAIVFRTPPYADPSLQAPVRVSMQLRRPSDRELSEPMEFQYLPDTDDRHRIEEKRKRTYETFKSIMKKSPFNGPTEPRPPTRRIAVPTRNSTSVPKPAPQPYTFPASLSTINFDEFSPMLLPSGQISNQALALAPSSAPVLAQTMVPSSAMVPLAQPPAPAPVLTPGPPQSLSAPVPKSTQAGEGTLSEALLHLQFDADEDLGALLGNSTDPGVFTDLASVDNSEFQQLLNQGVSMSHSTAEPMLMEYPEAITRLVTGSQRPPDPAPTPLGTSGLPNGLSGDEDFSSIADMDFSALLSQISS", "assay": "Inhibition of NFkappaB activation in mouse RAW264.7 cells assessed as reduction in LPS-induced p65 phosphorylation at 1 to 4 uM incubated for 2 hrs after pre-incubation with LPS for 15 mins by Western blot analysis", "format": "cell-based"}, "[20]": {"biological_target": "Transcription factor p65 (Mus musculus) (UniProt Q04207)", "assay": "Inhibition of NFkappaB activation in mouse RAW264.7 cells assessed as reduction in TNFalpha-induced p65 phosphorylation at 1 to 4 uM incubated for 2 hrs after pre-incubation with LPS for 15 mins by Western blot analysis", "format": "cell-based"}, "[21]": {"test_system": "HepG2", "assay": "Induction of apoptosis in human HepG2 cells xenografted in Balb/c nude mouse assessed as reduction in Bcl-2 protein expression at 0.1 mg/kg, ip administered every 2 days for 20 days and measured every 2 days by immunohistochemistry", "format": "functional, organism-based"}, "[22]": {"assay": "Toxicity in Balb/c nude mouse xenografted with human HepG2 cells assessed as increase in body weight at 0.1 to 10 mg/kg, ip administered every 2 days for 20 days and measured every 2 days", "format": "organism-based", "conditions": "in vivo"}, "[23]": {"test_system": "HepG2", "assay": "Antitumor activity against human HepG2 cells xenografted in Balb/c nude mouse assessed as tumor volume level at 10 mg/kg, ip administered every 2 days for 20 days and measured every 2 days", "format": "functional"}, "[24]": {"biological_target": "Transcription factor p65 (Homo sapiens) (UniProt Q04206)", "sequence (Q04206 whole entry)": "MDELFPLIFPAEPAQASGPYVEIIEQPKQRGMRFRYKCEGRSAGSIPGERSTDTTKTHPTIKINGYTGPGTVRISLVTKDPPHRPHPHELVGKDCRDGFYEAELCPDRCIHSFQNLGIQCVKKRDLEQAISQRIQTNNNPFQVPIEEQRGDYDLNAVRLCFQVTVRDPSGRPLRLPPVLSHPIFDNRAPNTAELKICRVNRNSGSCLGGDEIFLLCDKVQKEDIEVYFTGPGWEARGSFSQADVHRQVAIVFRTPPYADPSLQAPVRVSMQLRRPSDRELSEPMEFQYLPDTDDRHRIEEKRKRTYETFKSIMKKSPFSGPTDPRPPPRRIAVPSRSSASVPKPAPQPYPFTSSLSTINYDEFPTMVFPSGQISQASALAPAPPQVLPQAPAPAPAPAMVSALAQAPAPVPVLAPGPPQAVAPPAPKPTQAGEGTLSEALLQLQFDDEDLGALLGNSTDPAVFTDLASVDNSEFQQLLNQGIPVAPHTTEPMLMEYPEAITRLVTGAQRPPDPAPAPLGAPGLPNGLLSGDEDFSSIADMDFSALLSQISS", "assay": "Inhibition of LPS-induced NFkappaB p65 nuclear translocation in human HepG2 cells at 4 uM incubated for 2 hrs after pre-incubation with LPS for 15 mins by DAPI staining-based immunofluorescence assay", "format": "cell-based"}, "[25]": {"test_system": "HepG2", "assay": "Induction of apoptosis in human HepG2 cells xenografted in Balb/c nude mouse assessed as reduction in Bcl-2 protein expression at 1 mg/kg, ip administered every 2 days for 20 days and measured every 2 days by immunohistochemistry", "format": "functional, organism-based"}, "[26]": {"test_system": "HepG2", "assay": "Antitumor activity against human HepG2 cells xenografted in Balb/c nude mouse assessed as induction of incomplete cells at 10 mg/kg, ip administered every 2 days for 20 days and measured every 2 days by H and E staining based assay", "format": "functional, organism-based"}, "[27]": {"test_system": "HepG2", "assay": "Antitumor activity against human HepG2 cells xenografted in Balb/c nude mouse assessed as induction of wrinkled abnormalities on cell morphology at 10 mg/kg, ip administered every 2 days for 20 days and measured every 2 days by H and E staining based assay", "format": "functional, organism-based"}, "[28]": {"test_system": "Mus musculus", "assay": "Antiinflammatory activity in human HepG2 cells xenografted Balb/c nude mouse assessed as reduction in TNFalpha protein expression at 10 mg/kg, ip administered every 2 days for 20 days and measured every 2 days by immunohistochemistry", "format": "functional, organism-based"}, "[29]": {"test_system": "HepG2", "assay": "Antitumor activity against human HepG2 cells xenografted in Balb/c nude mouse assessed as effect on tumor volume level at 0.1 mg/kg, ip administered every 2 days for 20 days and measured every 2 days", "format": "functional, organism-based"}},
  "note": "Calls of active or inactive are those of the source. The calls are words filed in the database; no cut-off is given here.",
  "data": [
    {"smiles": "O=C1/C(=C/c2cccnc2)CN(S(=O)(=O)c2ccc(C(F)(F)F)cc2)C/C1=C\\c1ccccc1C(F)(F)F", "values": [
      {"measurement": "Activity", "setting": "[1]", "value": "Active"},
      {"measurement": "Activity", "setting": "[2]", "value": "Dose-dependent effect"},
      {"measurement": "IC50", "setting": "[2]; HepG2, 24 h", "value": 1710, "unit": "nM"},
      {"measurement": "Activity", "setting": "[3]", "value": "Dose-dependent effect"},
      {"measurement": "IC50", "setting": "[3]; QGY-7703, 24 h", "value": 1500, "unit": "nM"},
      {"measurement": "Activity", "setting": "[4]", "value": "Dose-dependent effect"},
      {"measurement": "IC50", "setting": "[4]; SMMC-7721, 24 h", "value": 1730, "unit": "nM"},
      {"measurement": "IC50", "setting": "[5]", "value": 15800, "unit": "nM"},
      {"measurement": "IC50", "setting": "[6]", "value": 14300, "unit": "nM"},
      {"measurement": "Activity", "setting": "[7]", "value": "Dose-dependent effect"},
      {"measurement": "Activity", "setting": "[8]", "value": "Dose-dependent effect"},
      {"measurement": "Activity", "setting": "[9]", "value": "Dose-dependent effect"},
      {"measurement": "Activity", "setting": "[10]", "value": 58, "unit": "%"},
      {"measurement": "Activity", "setting": "[11]", "value": 40, "unit": "%"},
      {"measurement": "Activity", "setting": "[12]", "value": 40, "unit": "%"},
      {"measurement": "Activity", "setting": "[13]", "value": ">70", "unit": "%"},
      {"measurement": "Activity", "setting": "[14]", "value": ">70", "unit": "%"},
      {"measurement": "Activity", "setting": "[15]", "value": ">70", "unit": "%"},
      {"measurement": "Activity", "setting": "[16]", "value": "Dose-dependent effect"},
      {"measurement": "Activity", "setting": "[17]", "value": "Dose-dependent effect"},
      {"measurement": "inhibition", "setting": "[18]", "value": "Dose-dependent effect"},
      {"measurement": "inhibition", "setting": "[19]", "value": "Dose-dependent effect"},
      {"measurement": "inhibition", "setting": "[20]", "value": "Dose-dependent effect"},
      {"measurement": "Activity", "setting": "[21]", "value": "inactive"},
      {"measurement": "Activity", "setting": "[22]", "value": "Non-Toxic"},
      {"measurement": "Activity", "setting": "[23]", "value": "<200", "unit": "mm3"},
      {"measurement": "inhibition", "setting": "[24]", "value": "Active"},
      {"measurement": "Activity", "setting": "[25]", "value": "Active"},
      {"measurement": "Activity", "setting": "[26]", "value": "Active"},
      {"measurement": "Activity", "setting": "[27]", "value": "Active"},
      {"measurement": "Activity", "setting": "[28]", "value": "Active"},
      {"measurement": "Activity", "setting": "[29]", "value": "inactive"}
    ]}
  ]
}
